The text below walks through data of ChEMBL document CHEMBL4396974, “Synthesis and evaluation of a novel quinoline-triazole analogs for antitubercular properties via molecular hybridization approach” (Bioorg Med Chem Lett, 2019).

The structures appear in SMILES notation. Values after ≈ are worked out from the molar mass of the structure shown. Active and inactive are the calls of the source. The rule behind the calls is not given here.

For this assay, the system named is Mycobacterium tuberculosis variant bovis. The experiment in a line: Antimycobacterial activity against Mycobacterium bovis assessed as 90 percent growth inhibition measured after 120 hrs by turbidometric analysis. Type of assay: functional.
As a reminder, the MIC90 is the lowest concentration that inhibits either 90% of growth or 90% of the strains tested, depending on the study. Turning to `CCCCCCCCc1cn(C(c2ccccc2)c2cc3cc(Br)ccc3nc2OC)nn1` (configuration not stated), the MIC90 came to 34.9 µM (≈ 17.7 µg/mL).

For `COc1nc2ccc(Br)cc2cc1C(c1ccccc1)n1cc(-c2ccccc2)nn1` (configuration not stated), the MIC90 was 161 µM (≈ 75.7 µg/mL).

Regarding `COc1nc2ccc(Br)cc2cc1C(c1ccccc1)n1cc(-c2ccccc2F)nn1` (configuration not stated), the MIC90 entry is “inactive”.

As for `COc1nc2ccc(Br)cc2cc1C(c1ccccc1)n1cc(CCO)nn1` (configuration not stated), the MIC90 was found to be 133 µM (≈ 58.3 µg/mL).

Take `CCCc1cn(C(c2ccccc2)c2cc3cc(Br)ccc3nc2OC)nn1` (configuration not stated): the MIC90 worked out at 45.2 µM (≈ 19.8 µg/mL).

As to `NNC(=O)c1ccncc1` [ISONIAZID], the MIC90 stood at 12.5 µM (≈ 1.72 µg/mL).

On to `COc1nc2ccc(Br)cc2cc1[C@@H](c1ccccc1)[C@@](O)(CCN(C)C)c1cccc2ccccc12` [BEDAQUILINE], for which the MIC90 stood at 0.15 µM (≈ 0.0833 µg/mL).

In the case of `COc1nc2ccc(Br)cc2cc1C(c1ccccc1)n1cc(-c2ccc(OC(F)(F)F)cc2)nn1` (configuration not stated), the MIC90 was 41 µM (≈ 22.8 µg/mL).

For the compound `CCCCCCCc1cn(C(c2ccccc2)c2cc3cc(Br)ccc3nc2OC)nn1` (configuration not stated), the MIC90 turned out to be 71.9 µM (≈ 35.5 µg/mL).

Regarding `CCOC(=O)c1cn(C(c2ccccc2)c2cc3cc(Br)ccc3nc2OC)nn1` (configuration not stated), the MIC90 entry was “inactive”.

With `CO[C@H]1/C=C/O[C@@]2(C)Oc3c(C)c(O)c4c(O)c(c(/C=N/N5CCN(C)CC5)c(O)c4c3C2=O)NC(=O)/C(C)=C\C=C\[C@H](C)[C@H](O)[C@@H](C)[C@@H](O)[C@@H](C)[C@H](OC(C)=O)[C@@H]1C` [RIFAMPIN], the MIC90 was 2.2 µM (≈ 1.81 µg/mL).

Take `CCCCCCc1cn(C(c2ccccc2)c2cc3cc(Br)ccc3nc2OC)nn1` (configuration not stated): the MIC90 was found to be 44.4 µM (≈ 21.3 µg/mL).

Consider `COc1nc2ccc(Br)cc2cc1C(c1ccccc1)n1cc(CCCCCO)nn1` (configuration not stated), for which the MIC90 was 59.6 µM (≈ 28.7 µg/mL).

As for `COc1nc2ccc(Br)cc2cc1C(c1ccccc1)n1cc(-c2ccc(Br)cc2)nn1` (configuration not stated), the MIC90 was 49 µM (≈ 27 µg/mL).

With `COc1nc2ccc(Br)cc2cc1C(c1ccccc1)n1cc(C2CC2)nn1` (configuration not stated), the MIC90 entry was “inactive”.

With `CCCCc1cn(C(c2ccccc2)c2cc3cc(Br)ccc3nc2OC)nn1` (configuration not stated), the MIC90 was 50.2 µM (≈ 22.7 µg/mL).

In the case of `CCCCCc1cn(C(c2ccccc2)c2cc3cc(Br)ccc3nc2OC)nn1` (configuration not stated), the MIC90 turned out to be 80.9 µM (≈ 37.7 µg/mL).

On to `COc1nc2ccc(Br)cc2cc1C(c1ccccc1)n1cc(CCCO)nn1` (configuration not stated), for which the MIC90 entry is “inactive”.

Consider `COc1nc2ccc(Br)cc2cc1C(c1ccccc1)n1cc(-c2cccc(F)c2)nn1` (configuration not stated), for which the MIC90 came out at 31.4 µM (≈ 15.3 µg/mL).

Take `COc1nc2ccc(Br)cc2cc1C(c1ccccc1)n1cc(-c2ccc(F)cc2)nn1` (configuration not stated): the MIC90 entry was “inactive”.

For the compound `COc1nc2ccc(Br)cc2cc1C(c1ccccc1)n1cc(CO)nn1` (configuration not stated), the MIC90 stood at 131 µM (≈ 55.7 µg/mL).

As to `COc1nc2ccc(Br)cc2cc1C(c1ccccc1)n1cc(-c2ccccc2C(F)(F)F)nn1` (configuration not stated), the MIC90 came to 174 µM (≈ 93.8 µg/mL).
